Source: ChEMBL document CHEMBL1201862, “PubChem BioAssay data set” (2004)
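Five compound concentrations were applied to cells in 96-well plates for 48 hours; endpoints were derived by simple linear interpolation of the resulting dose-response curve. Abbreviation: GI50, concentration required for 50% inhibition of growth.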 The source made the active and inactive calls. No stated cut-off is given here; in the data, active = GI50 up to about 1.1 µM and inactive = higher.

Tests used:
Assay in all cases: growth of human tumour cells (NCI), 48 h
[1] = system: DMS-114
[2] = system: EKVX
[3] = system: HOP-62
[4] = system: HOP-92
[5] = system: KM-20L2
[6] = system: LXFL 529
[7] = system: M19-MEL
[8] = system: OVCAR-5
[9] = system: SK-MEL-2
[10] = system: SR
[11] = system: TK-10
[12] = system: A498
[13] = system: MDA-MB-435
[14] = system: NCI-H23
[15] = system: NCI/ADR-RES
[16] = system: PC-3
[17] = system: DLD-1
[18] = system: HOP-18
[19] = system: SNB-78
[20] = system: UACC-257

Row | SMILES | GI50 [1] | GI50 [2] | GI50 [3] | GI50 [4] | GI50 [5] | GI50 [6] | GI50 [7] | GI50 [8] | GI50 [9] | GI50 [10] | GI50 [11] | GI50 [12] | GI50 [13] | GI50 [14] | GI50 [15] | GI50 [16] | GI50 [17] | GI50 [18] | GI50 [19] | GI50 [20]
1 | O=c1n(CC2CO2)c2ccccc2n1CC1CS1 (centres undefined) | 77.8 µM (inactive) | > 100 µM (inactive) | > 100 µM (inactive) | > 100 µM (inactive) | > 100 µM (inactive) | 88.9 µM (inactive) | > 100 µM (inactive) | > 100 µM (inactive) | > 100 µM (inactive) | 44.7 µM (inactive) | > 100 µM (inactive) | – | – | – | – | – | – | – | – | –
2 | Cc1ccc(Cl)cc1/N=N/C(=O)NNc1cc(Cl)ccc1C | – | – | 10.8 µM (inactive) | 15.5 µM (inactive) | – | – | – | 15.8 µM (inactive) | 13.9 µM (inactive) | 37.7 µM (inactive) | – | 20.3 µM (inactive) | 25.2 µM (inactive) | 19.4 µM (inactive) | 19.9 µM (inactive) | 10.1 µM (inactive) | – | – | – | –
3 | CC1(C)CCc2cc3c(-c4ccccc4)cc(=O)oc3cc2O1 | > 100 µM (inactive) | > 100 µM (inactive) | – | 21.1 µM (inactive) | > 100 µM (inactive) | > 100 µM (inactive) | > 100 µM (inactive) | – | > 100 µM (inactive) | – | > 100 µM (inactive) | > 100 µM (inactive) | – | > 100 µM (inactive) | – | – | > 100 µM (inactive) | 47.8 µM (inactive) | 85.7 µM (inactive) | –
4 | CCOc1ccc(C(C)c2cc3c(cc2OC)OCO3)cc1 (centres undefined) | 0.214 µM (active) | – | 0.323 µM (active) | 0.855 µM (active) | 0.199 µM (active) | 0.429 µM (active) | – | 65.5 µM (inactive) | – | 0.0982 µM (active) | 0.353 µM (active) | – | – | 0.267 µM (active) | – | – | 0.377 µM (active) | 2.2 µM (inactive) | 3.2 µM (inactive) | 0.767 µM (active)
5 | CCC1=NC(C(F)(F)F)(C(F)(F)F)N=C(N2CCOCC2)O1 | – | > 100 µM (inactive) | – | > 100 µM (inactive) | – | – | – | > 100 µM (inactive) | > 100 µM (inactive) | > 100 µM (inactive) | > 100 µM (inactive) | – | > 100 µM (inactive) | > 100 µM (inactive) | > 100 µM (inactive) | > 100 µM (inactive) | – | – | – | > 100 µM (inactive)
6 | O=c1c2ccccc2[nH]c2cc(O)cc(O)c12 | – | – | – | – | – | 39.3 µM (inactive) | 39.1 µM (inactive) | – | 81.7 µM (inactive) | – | > 100 µM (inactive) | – | – | 22.9 µM (inactive) | – | – | – | > 100 µM (inactive) | > 100 µM (inactive) | 45 µM (inactive)
7 | CCCCOC(=O)CN1C(=O)c2ccccc2C1=O | – | > 100 µM (inactive) | > 100 µM (inactive) | > 100 µM (inactive) | > 100 µM (inactive) | – | > 100 µM (inactive) | > 100 µM (inactive) | > 100 µM (inactive) | > 100 µM (inactive) | > 100 µM (inactive) | – | – | > 100 µM (inactive) | – | – | > 100 µM (inactive) | – | > 100 µM (inactive) | > 100 µM (inactive)
8 | C=C(C)C1CC2=C(O1)C(=O)c1ccccc1C2=O (stereo not drawn) [DEHYDROISO-ALPHA-LAPACHONE] | 16 µM (inactive) | 25.7 µM (inactive) | 19.6 µM (inactive) | 16.3 µM (inactive) | – | 17.2 µM (inactive) | – | – | – | – | 23 µM (inactive) | – | – | 18.9 µM (inactive) | – | – | 20.8 µM (inactive) | – | 20.3 µM (inactive) | 13.3 µM (inactive)
